Assay [1] concerns proton motive force-driven multidrug efflux pump of E. coli CFT073. Description: Ethidium bromide (EtBr) efflux assay. Format: cell-based, Escherichia coli. To be noted: PRMSE, catechol at 0.25 times the MIC; CCCP 100 μM; untreated cells 36.9. How it is done:
(§1) An overnight grown culture of each strain is diluted 1:100 using MHB-II broth to a final volume of 10 mL and grown to an OD600 of 0.8-1.0 (at 37° C., 150 rpm). […] The tubes are incubated for 1 h (37° C., 150 rpm). The inoculum is then adjusted to 0.4 OD600 with MHB-II broth containing 5 μM EtBr and 2 mL aliquots of this mixture are pelleted (5000×g, 10 min at 4° C.). The pellets are incubated on ice immediately, resuspended in 1 mL of MHB-II, and aliquoted (200 μL) into a polystyrene 96 well black, clear-bottom plate (Corning™, Fisher Scientific, ON, Canada). EtBr efflux from the cells is monitored at room temperature using the microplate reader (ex/em 530/600 nm). Readings are taken at 5 min intervals for 1 h to monitor efflux pump activity. The background fluorescence of the medium is subtracted from all measurements and the assay is repeated independently in triplicate.

Assay [2] deals with proton motive force-driven multidrug efflux pump of P. mirabilis HI4320. Description: Ethidium bromide (EtBr) efflux assay. It is filed as cell-based, Proteus mirabilis. To be noted: PRMSE, catechol at 0.25 times the MIC; CCCP 100 μM; untreated cells 35.9. How it is done: as §1
Assay [3] relates to proton motive force-driven multidrug efflux pump of P. aeruginosa PA14. Description: Ethidium bromide (EtBr) efflux assay. It is filed as cell-based, Pseudomonas aeruginosa. To be noted: PRMSE, catechol at 0.25 times the MIC; CCCP 100 μM; untreated cells 30.9. The method, then: as §1
In assay [4] the test system is proton motive force-driven multidrug efflux pump of P. aeruginosa PAO1. Nature of the assay: Ethidium bromide (EtBr) efflux assay. Format: cell-based, Pseudomonas aeruginosa. The settings on record: PRMSE, catechol at 0.25 times the MIC; CCCP 100 μM; untreated cells 37.6. The method, then: as §1
The test system of assay [5] is cell membrane of E. coli CFT073. Nature of the assay: BacLight membrane integrity assay. It is filed as cell-based, Escherichia coli. To be noted: PRMSE, catechol at 4 × MIC for 10 min; CTAB 10 μM; untreated = 100. How it is done: (§2) The BacLight kit (L-13152, Invitrogen™, Life Technologies Inc., Canada) is used to assess cell membrane damage. Overnight bacterial cultures are diluted 1:40 in fresh MHBII broth to a final volume of 5 mL, grown to an OD600 of 0.5-0.6, washed with filter-sterilized 10 mM phosphate buffered saline (PBS, pH 7.0) and resuspended in 1/10 of the original volume. […] Cultures are incubated at room temperature (21±2° C.) on a tube rocker for 10 min. At the end of the incubation period, an aliquot is taken for CFU counts and the remaining suspension is washed with 10 mM PBS and resuspended to an OD600) of 0.3. An aliquot (100 μL) of each bacterial suspension is removed and added to a 96-well, black, clear-bottom plate (Corning™, Fisher Scientific, ON, Canada) along with an equal volume of the BacLight™ reagent (2× stock solution, L13152, Invitrogen™, Life Technologies Inc., Canada) and the plates are incubated for 10 min at room temperature in the dark. At the end of the incubation period, fluorescence intensity is recorded for both kit components, SYTO-9 (ex/em 485/530 nm) and propidium iodide (ex/em 485/645 nm), using the microplate reader. Fluorescence readings from samples are normalized to the values obtained from untreated control to determine the ratio of membrane compromised cells to cells with intact membrane. […]

Assay [6] relates to cell membrane of P. mirabilis HI4320. Description: BacLight membrane integrity assay. Format: cell-based, Proteus mirabilis. To be noted: PRMSE, catechol at 4 × MIC for 10 min; CTAB 10 μM; untreated = 100. How it is done:
as §2

Assay [7] relates to cell membrane of P. aeruginosa PA14. Description: BacLight membrane integrity assay. The settings on record: PRMSE, catechol at 4 × MIC for 10 min; CTAB 10 μM; untreated = 100. It is filed as cell-based, Pseudomonas aeruginosa. The method, then: (§3) The BacLight kit (L-13152, Invitrogen™, Life Technologies Inc., Canada) is used to assess cell membrane damage. Overnight bacterial cultures are diluted 1:40 in fresh MHBII broth to a final volume of 5 mL, grown to an OD600 of 0.5-0.6, washed with filter-sterilized 10 mM phosphate buffered saline (PBS, pH 7.0) and resuspended in 1/10 of the original volume. […] Cultures are incubated at room temperature (21±2° C.) on a tube rocker for 10 min. At the end of the incubation period, an aliquot is taken for CFU counts and the remaining suspension is washed with 10 mM PBS and resuspended to an OD600) of 0.3. An aliquot (100 μL) of each bacterial suspension is removed and added to a 96-well, black, clear-bottom plate (Corning™, Fisher Scientific, ON, Canada) along with an equal volume of the BacLight™ reagent (2× stock solution, L13152, Invitrogen™, Life Technologies Inc., Canada) and the plates are incubated for 10 min at room temperature in the dark. At the end of the incubation period, fluorescence intensity is recorded for both kit components, SYTO-9 (ex/em 485/530 nm) and propidium iodide (ex/em 485/645 nm), using the microplate reader. Fluorescence readings from samples are normalized to the values obtained from untreated control to determine the ratio of membrane compromised cells to cells with intact membrane. Cetyltrimethylammonium bromide (CTAB, Sigma-Aldrich Canada), a cationic detergent that is known to cause membrane damage, is used at concentration of 10 μM as a positive control for membrane disruption.

The subject of assay [8] is cell membrane of P. aeruginosa PAO1. Nature of the assay: BacLight membrane integrity assay. Format: cell-based, Pseudomonas aeruginosa. The settings on record: PRMSE, catechol at 4 × MIC for 10 min; CTAB 10 μM; untreated = 100. The method, then:
as §3

The subject of assay [9] is E. coli CFT073. Nature of the assay: Bacterial colony forming ability (CFU counts after exposure). It is filed as cell-based, Escherichia coli. To be noted: log decrease vs untreated control; 4 × MIC, 10 min; CTAB 10 μM. How it is done: as §3
The test system of assay [10] is P. mirabilis HI4320. Described as above. It is filed as cell-based, Proteus mirabilis. To be noted: log decrease vs untreated control; 4 × MIC, 10 min; CTAB 10 μM. How it is done:
as §3

In assay [11] the test system is P. aeruginosa PA14. The description is as above. Format: cell-based, Pseudomonas aeruginosa. To be noted: log decrease vs untreated control; 4 × MIC, 10 min; CTAB 10 μM. How it is done: as §3
Assay [12] concerns P. aeruginosa PAO1. The description is as above. Format: cell-based, Pseudomonas aeruginosa. To be noted: log decrease vs untreated control; 4 × MIC, 10 min; CTAB 10 μM. The method, then: as §3

For the compound `N#CC(C#N)=NNc1cccc(Cl)c1` [CCCP, carbonyl cyanide m-chlorophenylhydrazone, reference compound], the Efflux pump activity in assay [1] is recorded as 15.8%; in [2] it was 14.5%; in assay [3], 17%. Further, the “% EtBr efflux” value in assay [4] came out at 19.3%.

`CCCCCCCCCCCCCCCC[N+](C)(C)C.[Br-]` [CTAB, cetyltrimethyl-ammonium bromide, reference compound]: in assay [5], the “% cells with uncompromised membrane (BacLight assay)” value is listed as 0%. Further, the “% cells with uncompromised membrane” value in assay [6], in assay [7] and in assay [8] was 0% each time. Moreover, the “Bacterial colony forming ability (Δ log CFU mL^−1)” value in [9] was 5.7 Δ log CFU mL^−1; in [10], 4.5 Δ log CFU mL^−1; in [11], 4.9 Δ log CFU mL^−1; in [12] it was 5.1 Δ log CFU mL^−1.

(Values after patent US10206906B2, “Synergistic combination of a phenolic-rich maple syrup extract and an antibiotic” (priority 2015, dated 2019).)
